Holding throughout (assay): NCI-60 cell line screen, 48 h
Experiment [1] has as its system EKVX NSCLC.
The test system of experiment [2] is T-47D breast.
Experiment [3] has as its system SK-MEL-28 melanoma.
For experiment [4], the system named is HOP-62 NSCLC.
Experiment [5] relates to RPMI-8226 leukemia.
Experiment [6] relates to HS 578T breast.
The subject of experiment [7] is BT-549 breast.
Experiment [8] relates to UO-31 renal.
Experiment [9] deals with IGROV1 ovarian.
Experiment [10] concerns MCF7 breast.
Experiment [11] relates to UACC-257 melanoma.
Experiment [12] concerns NCI-H522 lung.
In experiment [13] the test system is MDA-MB-231 breast.
The subject of experiment [14] is DU-145 prostate.
Experiment [15] relates to PC-3 prostate.
Experiment [16] deals with UACC-62 melanoma.
In experiment [17] the test system is ACHN renal.
The test system of experiment [18] is LOX IMVI melanoma.

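Exposure lasted 48 hours, with cells grown in 96-well plates and compounds tested at five concentrations. TGI is the concentration that stops growth completely.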 Some results are limits rather than exact numbers.

The results in this text go back to PubChem BioAssay (NCI).

In the case of `S=C1N(/N=C/c2c3ccccc3cc3ccccc23)C(=Nc2ccccc2)C(=Nc2ccccc2)N1c1ccccc1`, the TGI in experiment [1], in experiment [2], in experiment [3], in experiment [4], in experiment [5] and in experiment [6] was > 100 µM throughout. Moreover, the TGI in experiment [7], in experiment [8], in [9], in experiment [10], in experiment [11] and in experiment [12] was > 100 µM throughout. Besides, the TGI in [13], in experiment [14], in [15] and in experiment [16] was > 100 µM each time.
With `COc1cc(-c2cc(-c3ccccc3)nc(-c3c(OC)ccc4c(C)cc(=O)oc34)c2)cc(OC)c1OC`, the TGI in experiment [1], in [2], in experiment [4], in experiment [6], in experiment [7] and in experiment [8] was > 100 µM in each case. Also, the TGI in [9], in [10], in experiment [11], in [17], in experiment [12] and in experiment [13] was > 100 µM each time. The TGI in experiment [14], in experiment [18], in experiment [15] and in experiment [16] was > 100 µM in each case.
`CN(C)CCNC(=O)c1cc([N+](=O)[O-])cc2c1Oc1ccccc1O2`: the TGI in experiment [1] is > 100 µM; in experiment [2], 69.6 µM; in experiment [3] it was > 100 µM; in experiment [4], > 100 µM; in [5] it was > 100 µM; in [6] it was 99.8 µM. For the same molecule, the TGI is > 100 µM in experiment [7]; 33.2 µM in [8]; > 100 µM in experiment [9]; > 100 µM in [10]; > 100 µM in experiment [11]; > 100 µM in [17]. Also, the TGI in experiment [12] was > 100 µM; in experiment [14], > 100 µM; in experiment [18], > 100 µM; in [15] it was > 100 µM; in experiment [16] it was 39.2 µM.
For the molecule `CCN(CC)/C(Sc1ccccc1)=C(\C(Cl)=C(Cl)Cl)[N+](=O)[O-]`, the TGI in experiment [1] came to 34.7 µM; in [2], 42 µM; in [3], 32 µM; in experiment [4], 42.4 µM; in experiment [6], 81 µM; in experiment [7], 38.1 µM. In addition, the TGI in experiment [8] was 28.9 µM; in experiment [9], 43.7 µM; in experiment [10], 30.2 µM; in experiment [11], 44.5 µM; in [17], 31.7 µM; in experiment [12], 33.3 µM. Also, the TGI amounted to 50.5 µM in [13]; 34.9 µM in experiment [14]; 25.8 µM in [18]; 33.3 µM in [15]; 43.7 µM in experiment [16].
Consider `Cc1cn(C2CC(O)C(COC(=O)NCCC(F)(F)C(F)(F)C(F)(F)C(F)(F)F)O2)c(=O)[nH]c1=O` (stereo not drawn), for which the TGI in [1], in experiment [2], in [3], in experiment [4], in experiment [6] and in experiment [7] was > 100 µM throughout. The TGI in [8], in [9], in [10], in [11], in [17] and in experiment [12] was > 100 µM in each case. For the same molecule, the TGI in experiment [13], in experiment [14], in experiment [15] and in experiment [16] was > 100 µM each time.
Consider `COC(=O)c1sc(=S)sc1SCc1ccc(CSc2sc(=S)sc2C(=O)OC)cc1`, for which the TGI in experiment [1], in experiment [2], in [3], in experiment [4], in [6] and in [7] was > 100 µM throughout. In addition, the TGI in [8], in experiment [9], in experiment [10], in [11], in experiment [17] and in [12] was > 100 µM in each case. Besides, the TGI in experiment [13], in [14], in experiment [18], in [15] and in [16] was > 100 µM in each case.
Consider `COC(=O)C1CN=CN1CCc1ccccc1` (stereo not drawn), for which the TGI in [1], in [2], in experiment [3], in experiment [5], in experiment [6] and in experiment [7] was > 100 µM in each case. Further, the TGI in experiment [8], in experiment [9], in experiment [10], in experiment [11], in [17] and in experiment [12] was > 100 µM throughout. In addition, the TGI in experiment [13], in experiment [14], in experiment [18], in experiment [15] and in experiment [16] was > 100 µM in each case.
As for `CCCN(CCCc1ccccc1)CCc1ccc2[nH]c(=S)[nH]c2c1`, the TGI was > 100 µM in experiment [1]; 43.2 µM in experiment [2]; 51.5 µM in experiment [3]; > 100 µM in experiment [4]; 39.9 µM in [5]; > 100 µM in experiment [6]. Moreover, the TGI in experiment [7] is > 100 µM; in experiment [8], 51.4 µM; in [9] it was 79.9 µM; in experiment [10], > 100 µM; in experiment [11], 44.3 µM; in experiment [17], > 100 µM. The TGI was > 100 µM in experiment [13]; > 100 µM in experiment [14]; > 100 µM in experiment [18]; > 100 µM in experiment [15]; 74.4 µM in [16].
